Target: T1, eIF3d and eIF4G2 complex (Homo sapiens, UniProt O15371)
T1 construct: both recombinant from E. coli, 6xHis tags cut by TEV; full-length human eIF4G2; with Eukaryotic translation initiation factor 4 gamma 2
Test: fluorescence anisotropy competition with fluorescein-labelled m7G-capped […]'UTR RNA
Assay type: binding
Settings: 20 mM Hepes-KOH pH 7.5, 100 mM KCl, 1 mM MgCl2, 25 C, cap analog competing with 10 nM capped CD101, ITGAE or ACTB RNA, m7GDP concentration not given, ligand site assigned to the eIF3d c

T1 sequence (O15371 whole entry): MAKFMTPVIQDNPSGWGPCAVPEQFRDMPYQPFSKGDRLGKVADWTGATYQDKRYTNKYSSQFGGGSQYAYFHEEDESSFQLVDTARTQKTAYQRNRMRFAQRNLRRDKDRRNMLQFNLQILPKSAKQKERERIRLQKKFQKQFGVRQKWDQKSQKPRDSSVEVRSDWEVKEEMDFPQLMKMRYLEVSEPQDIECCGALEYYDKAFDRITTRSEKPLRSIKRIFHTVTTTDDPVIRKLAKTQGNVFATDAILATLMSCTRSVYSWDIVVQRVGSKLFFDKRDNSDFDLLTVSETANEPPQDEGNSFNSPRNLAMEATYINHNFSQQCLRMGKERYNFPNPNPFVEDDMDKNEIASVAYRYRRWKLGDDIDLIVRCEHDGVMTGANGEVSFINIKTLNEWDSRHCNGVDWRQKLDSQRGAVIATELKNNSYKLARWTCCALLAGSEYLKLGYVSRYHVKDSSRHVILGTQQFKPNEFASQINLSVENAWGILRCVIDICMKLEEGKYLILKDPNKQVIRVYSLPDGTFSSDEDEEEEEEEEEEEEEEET
T1 sequence (P78344 whole entry partner): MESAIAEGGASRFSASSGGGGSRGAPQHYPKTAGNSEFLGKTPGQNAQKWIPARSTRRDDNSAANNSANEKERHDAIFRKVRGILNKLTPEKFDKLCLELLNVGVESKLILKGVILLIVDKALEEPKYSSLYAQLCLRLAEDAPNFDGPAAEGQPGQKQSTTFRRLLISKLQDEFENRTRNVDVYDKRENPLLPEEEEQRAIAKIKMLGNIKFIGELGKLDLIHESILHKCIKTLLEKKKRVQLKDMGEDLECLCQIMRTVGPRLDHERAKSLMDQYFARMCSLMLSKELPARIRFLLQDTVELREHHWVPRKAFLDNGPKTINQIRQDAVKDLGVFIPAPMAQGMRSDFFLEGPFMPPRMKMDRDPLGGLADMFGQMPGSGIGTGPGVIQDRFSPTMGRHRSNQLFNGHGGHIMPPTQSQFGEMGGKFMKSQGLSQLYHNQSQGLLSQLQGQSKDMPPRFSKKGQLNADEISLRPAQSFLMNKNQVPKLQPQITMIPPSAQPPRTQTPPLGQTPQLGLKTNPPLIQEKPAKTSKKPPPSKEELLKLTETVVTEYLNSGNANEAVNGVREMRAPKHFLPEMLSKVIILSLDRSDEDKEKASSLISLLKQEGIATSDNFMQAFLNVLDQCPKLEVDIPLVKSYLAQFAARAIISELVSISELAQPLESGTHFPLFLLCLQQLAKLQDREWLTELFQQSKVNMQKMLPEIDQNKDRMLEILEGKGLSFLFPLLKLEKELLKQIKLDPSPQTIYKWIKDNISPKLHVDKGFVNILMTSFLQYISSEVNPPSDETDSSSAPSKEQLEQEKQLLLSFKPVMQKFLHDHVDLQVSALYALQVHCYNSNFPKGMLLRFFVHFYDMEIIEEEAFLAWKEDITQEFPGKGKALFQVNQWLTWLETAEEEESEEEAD

SMILES: C[n+]1cn([C@@H]2O[C@H](COP(=O)(O)OP(=O)(O)O)[C@@H](O)[C@H]2O)c2nc(N)[nH]c(=O)c21 [m^7GDP]
- fluorescence anisotropy competition with fluorescein-labelled m7G-capped 5'UTR R: reduction in the binding affinity of the eIF3d/eIF4G2 complex to the m^7G cap was also observed
